In one experiment the target is T1, FMS (Homo sapiens, UniProt P07333).
T1 construct: purchased Reaction Biology Corp
Put plainly: In vitro kinase inhibition assay (HotSpot, Reaction Biology). The note with it: single dose of 10 µM; 10 µM ATP as printed; read-out: Percent Inhibition, FMS. The format is biochemical. As for the experimental part: (§1) The in vitro kinase inhibition assay was carried out by Reaction Biology Corp. (Reaction Biology Corp., Chester, PA, USA) Kinase HotSpot^SM service (http://www.reactionbiology.com, accessed on 15 January 2021), following the previously reported methods. (For details, see Supplementary Material).
(§2) As mentioned in the introduction, to get insights about the kinase inhibition profile of the hybrid small molecule 5a, an in vitro screening over a panel of 14 cancer-related kinases was carried out. Accordingly, 10 µM concentrations of compound 5a were used in a kinase inhibition assay over various kinase groups and families in the presence of 10 µM ATP using HotSpotSM technology. To get a comprehensive picture of the inhibitory activities of the tested compound (5a) against the kinase panel, data are illustrated in Table 1. […] Compound 5a was also able to suppress the kinase activity of the epidermal growth factor receptor (EGFR), platelet-derived growth factor receptor-alpha (PDGFRα), and cyclin-dependent kinase 2 (CDK2) with modest inhibition values of 26.99 ± 0.9, 24.0 ± 0.4, and 20.1 ± 0.1%, respectively. […] Several studies have confirmed direct relationships between the most affected kinases (FMS, LCK, LYN, and DAPK1) and different human disorders including cancer.
(§3) 5. Protocol of Kinase assay
(§4) Kinases inhibitory activities were assessed by the HotSpot assay platform, which contained specific kinase/substrate pairs along with required cofactors. Base reaction buffer: 20 mM Hepes (pH 7.5), 10 mM MgCl2, 1 mM EGTA, 0.02% Brij35, 0.02 mg/ml BSA, 0.1 mM Na3VO4, 2 mM DTT, 1% DMSO. Testing compounds were dissolved in 100% DMSO to specific concentration. The serial dilution was conducted by Integra Viaflo Assist in DMSO. The reaction mixture containing the examined compound and 33P-ATP was incubated at room temperature for 2h and radioactivity was detected by filter-binding method. Kinase activity data were expressed as the percent remaining kinase activity in test samples compared to vehicle (dimethyl sulfoxide) reactions. IC50 values and curve fits were obtained using Prism (GraphPad Software).

Another experiment deals with T2, DAPK1 (Homo sapiens, UniProt P53355).
T2 construct: purchased Reaction Biology Corp
T2 sequence (P53355 whole entry): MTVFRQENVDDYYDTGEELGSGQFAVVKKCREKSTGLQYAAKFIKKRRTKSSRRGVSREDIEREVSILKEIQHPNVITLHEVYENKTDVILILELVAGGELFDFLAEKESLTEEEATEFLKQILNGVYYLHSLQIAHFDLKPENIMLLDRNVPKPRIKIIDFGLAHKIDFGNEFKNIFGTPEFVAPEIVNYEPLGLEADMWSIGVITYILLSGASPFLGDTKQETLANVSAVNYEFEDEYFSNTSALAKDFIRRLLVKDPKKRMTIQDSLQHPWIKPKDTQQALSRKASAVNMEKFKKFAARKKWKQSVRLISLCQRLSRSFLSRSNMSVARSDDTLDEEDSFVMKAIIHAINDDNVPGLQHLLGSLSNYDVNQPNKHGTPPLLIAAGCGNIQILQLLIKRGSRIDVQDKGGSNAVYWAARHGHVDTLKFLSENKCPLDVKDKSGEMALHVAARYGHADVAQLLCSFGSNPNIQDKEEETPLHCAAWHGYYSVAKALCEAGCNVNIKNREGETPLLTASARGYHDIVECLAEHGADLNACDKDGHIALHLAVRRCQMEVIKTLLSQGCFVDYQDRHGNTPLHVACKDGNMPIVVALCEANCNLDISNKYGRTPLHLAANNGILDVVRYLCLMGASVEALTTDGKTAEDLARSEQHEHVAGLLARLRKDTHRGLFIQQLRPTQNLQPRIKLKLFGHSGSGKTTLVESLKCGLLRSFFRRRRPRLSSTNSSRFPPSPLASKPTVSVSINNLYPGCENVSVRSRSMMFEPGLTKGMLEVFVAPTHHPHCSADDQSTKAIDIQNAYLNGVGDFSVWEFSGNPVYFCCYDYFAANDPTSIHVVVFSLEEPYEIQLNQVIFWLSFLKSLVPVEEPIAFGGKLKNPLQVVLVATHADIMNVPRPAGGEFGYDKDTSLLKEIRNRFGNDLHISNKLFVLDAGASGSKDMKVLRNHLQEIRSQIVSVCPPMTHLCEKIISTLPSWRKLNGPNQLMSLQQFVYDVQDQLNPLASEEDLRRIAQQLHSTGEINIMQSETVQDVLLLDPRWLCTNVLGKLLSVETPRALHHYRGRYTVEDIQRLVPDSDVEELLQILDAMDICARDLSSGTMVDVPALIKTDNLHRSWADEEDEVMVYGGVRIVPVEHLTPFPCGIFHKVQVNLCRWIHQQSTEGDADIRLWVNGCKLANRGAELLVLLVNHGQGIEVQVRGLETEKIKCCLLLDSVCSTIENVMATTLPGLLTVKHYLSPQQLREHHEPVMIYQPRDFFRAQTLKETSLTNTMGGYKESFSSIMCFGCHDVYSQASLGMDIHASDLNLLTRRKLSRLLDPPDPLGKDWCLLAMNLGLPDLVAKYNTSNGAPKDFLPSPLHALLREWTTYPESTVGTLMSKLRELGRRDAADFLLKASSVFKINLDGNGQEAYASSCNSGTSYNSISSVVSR
The experiment is described as above. The note with it: single dose of 10 µM; read-out: Percent Inhibition, DAPK1. The class given is biochemical. As for the experimental part:
as §1, §2, §3, §4
(§5) 6. Biology raw data for IC50 determination
(§6) Paper ID Cpd ID NSC Number

The next experiment addresses T3, LCK (Homo sapiens, UniProt P06239).
T3 construct: purchased Reaction Biology Corp
The description is as above. The note with it: single dose of 10 µM; 10 µM ATP as printed; read-out: Percent Inhibition, LCK. The class given is biochemical. The procedure: as §1, §2, §3, §4, §5, §6

The next experiment concerns the target T4, LYN (Homo sapiens, UniProt P07948).
T4 construct: purchased Reaction Biology Corp
Described as above. The format is biochemical. The following applies: single dose of 10 µM; 10 µM ATP as printed; read-out: Percent Inhibition, LYN. The procedure: as §1, §2, §3, §4, §5, §6

Another experiment deals with KM12. Description: NCI growth inhibition (SRB) assay. The class given is cell-based. The following applies: Homo sapiens, KM12, Colon Cancer, single dose 10 µM, 48 h, read-out: Percent Growth Inhibition (GI). As for the experimental part:
(§7) The antitumor assay was performed according to the protocol of the Drug Evaluation Branch, NCI, Bethesda. A 48 h drug exposure protocol was adopted, and sulforhodamine B (SRB) assay was utilized to assess the cell growth and viability, as reported earlier.
(§8) The inhibition results of tumor cell growth by the newly synthesized compounds (5a–5g) are described in Table 4. The reported measurements have been performed at the NIH National Cancer Institute, USA by a standardized assay including a panel of 60 different tumor cell lines (Supplementary Data). The following cancer cell types were included in these assays: Leukemia, non-small cell lung cancer, colon cancer, CNS cancer, melanoma, ovarian cancer, renal cancer, prostate, and breast cancer. […] Additionally, the 3,4-dimethoxy substituted compound (5b) also suffered poor activity against the cancer cell lines.

The next experiment relates to IGROV1. Put plainly: NCI growth inhibition (SRB) assay. The class given is cell-based. The following applies: Homo sapiens, IGROV-1, IGROV1, Ovarian Cancer, single dose 10 µM, 48 h, read-out: Percent Growth Inhibition (GI). The procedure:
as §7, §8

For a further experiment, the system named is RXF 393. Description: NCI growth inhibition (SRB) assay. The class given is cell-based. The note with it: Homo sapiens, RXF 393, Renal Cancer, single dose 10 µM, 48 h, read-out: Percent Growth Inhibition (GI). The procedure: as §7, §8
Another experiment deals with MCF7. Description: NCI growth inhibition (SRB) assay. The note with it: Homo sapiens, MCF7, Breast Cancer, single dose 10 µM, 48 h, read-out: Percent Growth Inhibition (GI). The class given is cell-based. The procedure:
as §7, §8

Another experiment concerns ACHN. Put plainly: NCI growth inhibition (SRB) assay. The class given is cell-based. The note with it: Homo sapiens, Renal Cancer, single dose 10 µM, 48 h, read-out: Percent Growth Inhibition (GI). The procedure:
as §7, §8

The subject of a further experiment is CAKI-1. Put plainly: NCI growth inhibition (SRB) assay. The format is cell-based. The following applies: Homo sapiens, CAKI-1, Renal Cancer, single dose 10 µM, 48 h, read-out: Percent Growth Inhibition (GI). The procedure: as §7, §8
For another experiment, the system named is HCT-116. Put plainly: NCI growth inhibition (SRB) assay. The format is cell-based. The note with it: Homo sapiens, HCT-116, Colon Cancer, single dose 10 µM, 48 h, read-out: Percent Growth Inhibition (GI). As for the experimental part: as §7, §8
The next experiment concerns 786-0. Description: NCI growth inhibition (SRB) assay. The following applies: Homo sapiens, 786-0, Renal Cancer, single dose 10 µM, 48 h, read-out: Percent Growth Inhibition (GI). The class given is cell-based. As for the experimental part:
as §7, §8

For another experiment, the system named is SF-539. Description: NCI growth inhibition (SRB) assay. The format is cell-based. The note with it: Homo sapiens, SF-539, CNS Cancer, single dose 10 µM, 48 h, read-out: Percent Growth Inhibition (GI). The procedure:
as §7, §8

The next experiment deals with HS 578T. Description: NCI growth inhibition (SRB) assay. The format is cell-based. The note with it: Homo sapiens, Breast Cancer, single dose 10 µM, 48 h, read-out: Percent Growth Inhibition (GI). As for the experimental part: as §7, §8
The next experiment deals with SR. Put plainly: NCI growth inhibition (SRB) assay. The class given is cell-based. The following applies: Homo sapiens, Leukemia, single dose 10 µM, 48 h, read-out: Percent Growth Inhibition (GI). The procedure: as §7, §8
A further experiment has as its system A498. Put plainly: NCI growth inhibition (SRB) assay. The format is cell-based. The following applies: Homo sapiens, A498, Renal Cancer, single dose 10 µM, 48 h, read-out: Percent Growth Inhibition (GI). As for the experimental part: as §7, §8
A further experiment relates to MOLT-4. Put plainly: NCI growth inhibition (SRB) assay. The class given is cell-based. The following applies: Homo sapiens, MOLT-4, Leukemia, single dose 10 µM, 48 h, read-out: Percent Growth Inhibition (GI). As for the experimental part: as §7, §8
The next experiment has as its system HCT-15. Put plainly: NCI growth inhibition (SRB) assay. The class given is cell-based. The note with it: Homo sapiens, HCT-15, Colon Cancer, single dose 10 µM, 48 h, read-out: Percent Growth Inhibition (GI). As for the experimental part: as §7, §8
The next experiment concerns T-47D. Put plainly: NCI growth inhibition (SRB) assay. The class given is cell-based. The following applies: Homo sapiens, T47D, Breast Cancer, single dose 10 µM, 48 h, read-out: Percent Growth Inhibition (GI). As for the experimental part:
as §7, §8

Structures are written as SMILES.

T4 sequence (P07948 whole entry): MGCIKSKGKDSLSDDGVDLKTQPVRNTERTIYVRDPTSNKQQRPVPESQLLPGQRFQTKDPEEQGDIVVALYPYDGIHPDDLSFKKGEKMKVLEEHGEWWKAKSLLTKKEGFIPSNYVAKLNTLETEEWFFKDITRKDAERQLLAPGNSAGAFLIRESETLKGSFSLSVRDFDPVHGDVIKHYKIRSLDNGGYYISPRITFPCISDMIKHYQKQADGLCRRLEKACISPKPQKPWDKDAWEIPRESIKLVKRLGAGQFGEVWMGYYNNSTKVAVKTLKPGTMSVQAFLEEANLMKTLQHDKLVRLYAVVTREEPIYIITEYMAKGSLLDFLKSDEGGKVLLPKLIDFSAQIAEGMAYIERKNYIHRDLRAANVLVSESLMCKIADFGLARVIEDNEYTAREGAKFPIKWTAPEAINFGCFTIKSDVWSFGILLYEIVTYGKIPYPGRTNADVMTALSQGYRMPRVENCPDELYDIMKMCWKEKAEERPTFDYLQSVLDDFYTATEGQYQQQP
T3 sequence (P06239 whole entry): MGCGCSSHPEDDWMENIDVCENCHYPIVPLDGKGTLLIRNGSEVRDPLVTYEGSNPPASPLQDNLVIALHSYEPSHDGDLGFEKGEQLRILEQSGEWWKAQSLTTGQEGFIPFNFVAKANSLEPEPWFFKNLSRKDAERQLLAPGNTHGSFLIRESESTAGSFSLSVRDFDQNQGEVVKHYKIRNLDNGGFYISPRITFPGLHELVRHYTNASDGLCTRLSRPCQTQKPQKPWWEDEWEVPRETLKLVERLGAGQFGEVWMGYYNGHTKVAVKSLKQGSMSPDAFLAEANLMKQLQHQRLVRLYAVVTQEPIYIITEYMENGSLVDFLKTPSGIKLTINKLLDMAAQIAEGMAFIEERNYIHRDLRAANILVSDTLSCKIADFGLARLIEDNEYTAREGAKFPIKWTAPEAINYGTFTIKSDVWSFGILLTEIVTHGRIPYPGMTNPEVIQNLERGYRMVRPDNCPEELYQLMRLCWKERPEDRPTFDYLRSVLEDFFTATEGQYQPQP
T1 sequence (P07333 20-972): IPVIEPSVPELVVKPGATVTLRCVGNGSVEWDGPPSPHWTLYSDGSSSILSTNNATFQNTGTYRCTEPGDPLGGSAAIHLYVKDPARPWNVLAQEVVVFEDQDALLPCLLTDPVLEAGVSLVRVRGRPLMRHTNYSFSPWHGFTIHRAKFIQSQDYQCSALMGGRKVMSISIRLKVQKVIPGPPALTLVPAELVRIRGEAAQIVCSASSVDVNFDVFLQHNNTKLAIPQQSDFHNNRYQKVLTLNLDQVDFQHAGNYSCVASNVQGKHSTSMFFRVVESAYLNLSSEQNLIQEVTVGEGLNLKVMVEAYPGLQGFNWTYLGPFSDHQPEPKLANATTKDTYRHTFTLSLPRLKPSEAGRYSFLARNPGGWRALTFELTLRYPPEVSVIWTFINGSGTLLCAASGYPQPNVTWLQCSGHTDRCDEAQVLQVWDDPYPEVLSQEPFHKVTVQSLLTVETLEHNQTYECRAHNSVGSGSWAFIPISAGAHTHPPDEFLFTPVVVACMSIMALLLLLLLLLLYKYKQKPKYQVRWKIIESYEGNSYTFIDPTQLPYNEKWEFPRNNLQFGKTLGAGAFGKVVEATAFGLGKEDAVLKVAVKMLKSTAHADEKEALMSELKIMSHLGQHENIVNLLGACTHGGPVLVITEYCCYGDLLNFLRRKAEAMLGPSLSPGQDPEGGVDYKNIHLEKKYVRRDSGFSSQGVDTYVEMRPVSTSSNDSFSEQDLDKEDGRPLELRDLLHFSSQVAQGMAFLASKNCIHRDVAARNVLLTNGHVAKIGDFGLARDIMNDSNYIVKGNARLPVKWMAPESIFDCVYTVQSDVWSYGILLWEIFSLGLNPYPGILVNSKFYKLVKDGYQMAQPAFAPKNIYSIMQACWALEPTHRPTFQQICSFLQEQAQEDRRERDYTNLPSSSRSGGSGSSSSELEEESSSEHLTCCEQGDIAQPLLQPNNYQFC

By inhibition is commonly meant the relative decrease from the control value, in per cent. For `COc1ccc(Oc2nc(Nc3ccc(N4CCOCC4)cc3)ncc2NC(=O)c2ccc3c(c2)OCO3)cc1` [5a, N-(4-(4-Methoxyphenoxy)-2-((4-morpholinophenyl)amino)pyrimidin-5-yl)benzo[d][1,3]dioxole-5-carboxamide], the inhibition at 10 µM on FMS was 82.5 ± 0.6%; on DAPK1, 55 ± 1.1%; on LCK, 81.4 ± 0.6%; at LYN, 75.2%; in the experiment with KM12, 12.7%; with IGROV1, 5.92%. Besides, the inhibition at 10 µM with RXF 393 was found to be 50.5%; in the experiment on MCF7, 8.51%; with ACHN, 8.91%; with CAKI-1, 33.9%; in the experiment on HCT-116, 14.6%; with 786-0 it was 25.3%. Also, the inhibition at 10 µM in the experiment with SF-539 was 4.73%; in the experiment on HS 578T, 6.26%; in the experiment on SR, 37.1%; in the experiment with A498, 22.4%; in the experiment on MOLT-4, 31.1%; in the experiment on HCT-15 it was 26%. Moreover, the inhibition at 10 µM with T-47D was found to be 6.78%.
As for `COc1ccc(Oc2nc(Nc3ccc(N4CCOCC4)cc3)ncc2NC(=O)c2cc(OC)c(OC)c(OC)c2)cc1` [5c, 3,4,5-Trimethoxy-N-(4-(4-methoxyphenoxy)-2-((4-morpholinophenyl)amino)pyrimidin-5-yl)benzamide], the inhibition at 10 µM on FMS was 69.9 ± 0.4%; at DAPK1 it was 50 ± 0.1%; at LCK, 19.4 ± 0.9%; at LYN, -1.6 ± 0.3%; in the experiment on KM12 it was 3.99%; with IGROV1, 11.9%. Further, the inhibition at 10 µM turned out to be 50.6% with RXF 393; 7.94% in the experiment on MCF7; 4.83% with ACHN; 28.1% in the experiment on CAKI-1; 23.9% in the experiment with HCT-116; 44.2% with 786-0. The inhibition at 10 µM was 7.64% in the experiment on SF-539; 3.23% in the experiment on HS 578T; 64.4% with SR; 38.3% in the experiment on A498; 31.6% in the experiment on MOLT-4; 34.4% in the experiment with HCT-15. The inhibition at 10 µM with T-47D is 0.52%.
Take `COc1ccc(Oc2nc(Nc3ccc(N4CCOCC4)cc3)ncc2NC(=O)Cc2cc(OC)cc(OC)c2)cc1` [5e, 2-(3,5-Dimethoxyphenyl)-N-(4-(4-methoxyphenoxy)-2-((4-morpholinophenyl)amino)pyrimidin-5-yl)acetamide]: the inhibition at 10 µM on FMS was 75.5 ± 0.8%; at DAPK1, 47.1 ± 0.7%; on LCK, 39.5 ± 0.4%; on LYN, 7.9 ± 0.4%; in the experiment with KM12 it was 1.32%; in the experiment with IGROV1 it was -9.02%. In addition, the inhibition at 10 µM in the experiment on RXF 393 was -8.16%; in the experiment with MCF7, 18.9%; in the experiment on ACHN, -0.26%; with CAKI-1 it was -2.58%; in the experiment on HCT-116, 0.34%; in the experiment on 786-0, 0.75%. Further, the inhibition at 10 µM is 2.09% in the experiment with SF-539; 1.64% in the experiment with HS 578T; 13.2% in the experiment on SR; -6.85% in the experiment on A498; -0.81% in the experiment on MOLT-4; 1.13% in the experiment with HCT-15. In the experiment on T-47D, the inhibition at 10 µM came out at 10.2%.

For the origin of these results see article PMC8468039, “Development of New Meridianin/Leucettine-Derived Hybrid Small Molecules as Nanomolar Multi-Kinase Inhibitors with Antitumor Activity” (Biomedicines, 2021).
